This note sets out measurements from ChEMBL document CHEMBL1201862, “PubChem BioAssay data set” (2004).

Assay [1] has as its target Melanocortin receptor 4 (Homo sapiens, UniProt P32245). Nature of the assay: MC4R antagonist potency on cAMP, dose response, cell-based, TR-FRET, biased antagonists (AID 602298).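 Note: antagonist potency against agonist-stimulated cAMP production.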 It counts as functional. (In general: In TR-FRET formats the signal depends on donor and acceptor labels being close together.)
Assay [2] in a line: nonselective inhibitors of cellular cAMP signaling, dose response, counter-screen for MC4R biased antagonist project, cell-based, TR-FRET cAMP detection (AID 602305).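 Note: U2OS cells stimulated with forskolin near its EC80 as the cAMP inducer; potency is for inhibition of forskolin-stimulated cAMP signaling.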 It counts as functional. In general terms: The purpose of a counterscreen is to sort out artefacts and off-target activity.
The target of assay [3] is Glyceraldehyde-3-phosphate dehydrogenase (Homo sapiens, UniProt P04406).
Sequence of Glyceraldehyde-3-phosphate dehydrogenase (P04406 whole entry): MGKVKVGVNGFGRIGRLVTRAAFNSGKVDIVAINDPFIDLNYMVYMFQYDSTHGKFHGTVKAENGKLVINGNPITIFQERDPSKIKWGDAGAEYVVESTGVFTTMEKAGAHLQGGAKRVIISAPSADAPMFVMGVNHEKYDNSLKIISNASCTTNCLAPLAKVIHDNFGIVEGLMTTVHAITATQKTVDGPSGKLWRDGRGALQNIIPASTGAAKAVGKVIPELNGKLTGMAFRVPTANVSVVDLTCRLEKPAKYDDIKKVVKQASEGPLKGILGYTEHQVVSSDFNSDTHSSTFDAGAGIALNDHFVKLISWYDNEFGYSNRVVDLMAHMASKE
Assay [4] has as its target Potassium voltage-gated channel subfamily KQT member 2 (Rattus norvegicus, UniProt O88943). Kind of assay: KCNQ2 potassium channel inhibitors, dose response, cell-based, automated electrophysiology, set II, rat KCNQ2 (AID 588637). The format is functional.
Assay [5] concerns the target 26S proteasome non-ATPase regulatory subunit 14 (Homo sapiens, UniProt O00487). Nature of the assay: inhibition of proteasome subunit RPN11 – biochemical, fluorescence polarization, uHTS hits, confirmation (AID 602368). It counts as functional. For orientation: Polarisation of emitted light reports the rotation of a fluorescent probe.
The target in assay [6] is 72 kDa type IV collagenase (Homo sapiens, UniProt P08253). Nature of the assay: Dose Response validation of uHTS RPN11 inhibitor hits using a MMP-2 Fluorescence assay. It counts as functional.
Sequence of 72 kDa type IV collagenase (P08253 whole entry): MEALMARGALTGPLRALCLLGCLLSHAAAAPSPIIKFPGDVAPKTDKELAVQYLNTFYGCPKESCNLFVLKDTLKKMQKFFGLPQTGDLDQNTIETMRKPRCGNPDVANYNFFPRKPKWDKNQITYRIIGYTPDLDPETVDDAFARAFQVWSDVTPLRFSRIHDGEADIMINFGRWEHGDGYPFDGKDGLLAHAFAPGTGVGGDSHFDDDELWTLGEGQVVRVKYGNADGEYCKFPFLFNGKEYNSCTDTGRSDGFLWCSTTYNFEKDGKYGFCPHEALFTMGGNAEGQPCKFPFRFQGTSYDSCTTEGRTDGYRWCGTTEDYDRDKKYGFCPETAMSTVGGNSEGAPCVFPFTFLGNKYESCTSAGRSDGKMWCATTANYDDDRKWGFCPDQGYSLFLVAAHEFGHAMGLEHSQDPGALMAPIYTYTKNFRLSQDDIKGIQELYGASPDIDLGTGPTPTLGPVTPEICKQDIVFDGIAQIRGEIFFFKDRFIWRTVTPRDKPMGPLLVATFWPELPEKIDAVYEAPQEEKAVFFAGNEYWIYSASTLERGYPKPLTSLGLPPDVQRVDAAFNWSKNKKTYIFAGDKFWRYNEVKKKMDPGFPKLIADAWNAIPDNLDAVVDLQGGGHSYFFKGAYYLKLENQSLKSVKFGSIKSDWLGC
For assay [7], the target named is Prothrombin (Bos taurus, UniProt P00735). Kind of assay: thrombin inhibition, dose response, biochemical, fluorescence polarization, uHTS hits (AID 602369). It counts as functional.
In assay [8] the target is T1, Carboxy-terminal domain RNA polymerase II polypeptide A small phosphatase 1 (Homo sapiens, UniProt Q9GZU7).
T1 sequence (Q9GZU7 whole entry): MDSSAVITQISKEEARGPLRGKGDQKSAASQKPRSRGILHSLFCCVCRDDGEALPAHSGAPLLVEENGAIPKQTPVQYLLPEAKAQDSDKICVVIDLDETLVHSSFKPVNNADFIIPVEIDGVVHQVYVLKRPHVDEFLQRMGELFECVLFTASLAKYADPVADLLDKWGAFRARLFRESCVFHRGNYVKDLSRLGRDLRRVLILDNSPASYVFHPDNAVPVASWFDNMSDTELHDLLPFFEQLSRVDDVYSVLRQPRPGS
Kind of assay: inhibitors of CTDSP1, concentration-response testing, biochemical assay, absorbance-based, actives from ultra-high-throughput screening (AID 540297). The format is functional.

The target of assay [9] is T2, Sentrin-specific protease 8 (Homo sapiens, UniProt Q96LD8).
T2 sequence (Q96LD8 whole entry): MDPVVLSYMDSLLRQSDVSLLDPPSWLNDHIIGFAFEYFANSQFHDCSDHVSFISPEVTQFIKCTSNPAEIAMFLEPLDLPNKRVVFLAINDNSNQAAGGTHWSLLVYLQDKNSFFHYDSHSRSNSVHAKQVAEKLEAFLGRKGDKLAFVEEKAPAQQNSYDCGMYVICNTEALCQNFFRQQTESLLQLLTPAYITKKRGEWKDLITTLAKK
Nature of the assay: SENP8 protease inhibitors, SAR follow-up, biochemical, luminescence (AID 504501). It counts as functional.

Assay [10] addresses T3, Caspase-3 (Homo sapiens, UniProt P42574).
T3 sequence (P42574 whole entry): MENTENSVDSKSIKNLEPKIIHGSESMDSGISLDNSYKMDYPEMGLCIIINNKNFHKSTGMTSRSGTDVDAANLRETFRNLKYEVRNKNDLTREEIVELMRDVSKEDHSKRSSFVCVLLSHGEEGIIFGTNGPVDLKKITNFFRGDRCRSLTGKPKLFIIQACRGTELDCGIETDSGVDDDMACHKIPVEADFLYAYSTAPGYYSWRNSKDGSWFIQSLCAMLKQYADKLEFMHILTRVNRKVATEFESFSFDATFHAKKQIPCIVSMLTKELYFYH
Nature of the assay: SAR Analysis of small molecule inhibitors of Sentrin-specific proteases (SENPs) using a Caspase-3 Selectivity assay. [Related pubchem assays (depositor defined):AID2540, AID2599, AID434973, AID489001]. It counts as functional.

The target of assay [11] is T4, Sentrin-specific protease 6 (Homo sapiens, UniProt Q9GZR1).
T4 sequence (Q9GZR1 whole entry): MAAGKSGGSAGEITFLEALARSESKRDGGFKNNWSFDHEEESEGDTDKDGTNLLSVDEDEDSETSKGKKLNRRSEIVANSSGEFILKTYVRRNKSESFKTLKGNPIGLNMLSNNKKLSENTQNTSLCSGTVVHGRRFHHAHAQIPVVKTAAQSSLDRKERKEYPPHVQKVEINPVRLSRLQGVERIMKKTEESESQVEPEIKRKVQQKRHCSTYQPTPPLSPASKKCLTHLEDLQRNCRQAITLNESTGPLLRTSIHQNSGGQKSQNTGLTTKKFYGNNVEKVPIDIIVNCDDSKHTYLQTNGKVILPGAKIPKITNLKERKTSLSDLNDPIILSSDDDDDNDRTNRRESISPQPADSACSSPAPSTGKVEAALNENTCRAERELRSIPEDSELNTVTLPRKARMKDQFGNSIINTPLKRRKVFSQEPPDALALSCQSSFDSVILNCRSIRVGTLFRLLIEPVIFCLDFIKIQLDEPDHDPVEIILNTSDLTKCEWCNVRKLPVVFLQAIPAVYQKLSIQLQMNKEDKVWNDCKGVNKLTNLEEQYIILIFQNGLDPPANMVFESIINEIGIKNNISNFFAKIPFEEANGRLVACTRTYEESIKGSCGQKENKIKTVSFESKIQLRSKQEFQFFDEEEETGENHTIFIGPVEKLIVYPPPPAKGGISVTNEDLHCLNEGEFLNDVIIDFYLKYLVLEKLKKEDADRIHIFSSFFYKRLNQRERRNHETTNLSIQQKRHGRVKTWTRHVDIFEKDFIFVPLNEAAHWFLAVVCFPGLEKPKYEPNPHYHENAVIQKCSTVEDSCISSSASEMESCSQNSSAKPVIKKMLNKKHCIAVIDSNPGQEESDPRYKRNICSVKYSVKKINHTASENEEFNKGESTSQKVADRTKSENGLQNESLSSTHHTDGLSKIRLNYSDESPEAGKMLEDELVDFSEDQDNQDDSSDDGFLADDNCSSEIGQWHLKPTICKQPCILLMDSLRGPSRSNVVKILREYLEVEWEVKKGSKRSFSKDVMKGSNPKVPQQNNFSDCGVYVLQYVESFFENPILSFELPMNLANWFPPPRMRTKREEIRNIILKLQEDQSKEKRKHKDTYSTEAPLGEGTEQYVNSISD
Kind of assay: SAR Analysis of small molecule inhibitors of Sentrin-specific protease 6 (SENP6) using a Luminescent assay. [Related pubchem assays (depositor defined):AID2582, AID2599]. It counts as functional.

For assay [12], the target named is T5, Sentrin-specific protease 7 (Homo sapiens, UniProt Q9BQF6).
T5 sequence (Q9BQF6 whole entry): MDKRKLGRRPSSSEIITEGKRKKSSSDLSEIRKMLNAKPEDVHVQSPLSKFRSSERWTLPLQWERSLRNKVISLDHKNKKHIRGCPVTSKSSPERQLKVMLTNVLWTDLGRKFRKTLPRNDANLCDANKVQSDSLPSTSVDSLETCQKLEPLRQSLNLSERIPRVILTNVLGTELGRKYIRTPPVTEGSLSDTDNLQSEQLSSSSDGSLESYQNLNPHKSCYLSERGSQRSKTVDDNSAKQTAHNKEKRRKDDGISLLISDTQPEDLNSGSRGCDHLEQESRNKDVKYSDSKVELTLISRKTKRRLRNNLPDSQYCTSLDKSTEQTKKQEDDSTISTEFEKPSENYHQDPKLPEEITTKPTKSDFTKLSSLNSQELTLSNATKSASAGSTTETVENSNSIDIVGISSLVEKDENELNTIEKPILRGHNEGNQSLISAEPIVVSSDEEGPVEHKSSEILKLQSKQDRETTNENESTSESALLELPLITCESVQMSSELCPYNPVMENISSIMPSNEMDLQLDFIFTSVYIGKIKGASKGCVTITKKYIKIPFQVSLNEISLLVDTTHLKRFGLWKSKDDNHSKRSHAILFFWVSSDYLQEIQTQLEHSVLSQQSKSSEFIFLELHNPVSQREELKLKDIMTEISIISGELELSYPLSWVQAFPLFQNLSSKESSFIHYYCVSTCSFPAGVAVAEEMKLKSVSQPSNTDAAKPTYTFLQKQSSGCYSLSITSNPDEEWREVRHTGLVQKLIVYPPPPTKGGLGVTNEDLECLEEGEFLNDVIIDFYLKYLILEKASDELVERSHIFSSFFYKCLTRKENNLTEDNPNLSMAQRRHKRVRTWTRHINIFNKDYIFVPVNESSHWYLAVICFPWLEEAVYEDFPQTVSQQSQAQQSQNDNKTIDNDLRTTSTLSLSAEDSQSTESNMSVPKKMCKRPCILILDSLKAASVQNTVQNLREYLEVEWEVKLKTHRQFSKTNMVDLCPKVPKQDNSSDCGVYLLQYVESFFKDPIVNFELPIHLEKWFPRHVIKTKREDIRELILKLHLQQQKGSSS
Kind of assay: SENP7 protease inhibitors, SAR follow-up, biochemical, luminescence (AID 504497). The format is functional.

For assay [13], the target named is T6, Apoptotic protease-activating factor 1 (Homo sapiens, UniProt O14727).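 Note: caspase-3 cleavage of fluorogenic Rh110 DEVD substrate downstream of apoptosome activation.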
T6 sequence (O14727 whole entry): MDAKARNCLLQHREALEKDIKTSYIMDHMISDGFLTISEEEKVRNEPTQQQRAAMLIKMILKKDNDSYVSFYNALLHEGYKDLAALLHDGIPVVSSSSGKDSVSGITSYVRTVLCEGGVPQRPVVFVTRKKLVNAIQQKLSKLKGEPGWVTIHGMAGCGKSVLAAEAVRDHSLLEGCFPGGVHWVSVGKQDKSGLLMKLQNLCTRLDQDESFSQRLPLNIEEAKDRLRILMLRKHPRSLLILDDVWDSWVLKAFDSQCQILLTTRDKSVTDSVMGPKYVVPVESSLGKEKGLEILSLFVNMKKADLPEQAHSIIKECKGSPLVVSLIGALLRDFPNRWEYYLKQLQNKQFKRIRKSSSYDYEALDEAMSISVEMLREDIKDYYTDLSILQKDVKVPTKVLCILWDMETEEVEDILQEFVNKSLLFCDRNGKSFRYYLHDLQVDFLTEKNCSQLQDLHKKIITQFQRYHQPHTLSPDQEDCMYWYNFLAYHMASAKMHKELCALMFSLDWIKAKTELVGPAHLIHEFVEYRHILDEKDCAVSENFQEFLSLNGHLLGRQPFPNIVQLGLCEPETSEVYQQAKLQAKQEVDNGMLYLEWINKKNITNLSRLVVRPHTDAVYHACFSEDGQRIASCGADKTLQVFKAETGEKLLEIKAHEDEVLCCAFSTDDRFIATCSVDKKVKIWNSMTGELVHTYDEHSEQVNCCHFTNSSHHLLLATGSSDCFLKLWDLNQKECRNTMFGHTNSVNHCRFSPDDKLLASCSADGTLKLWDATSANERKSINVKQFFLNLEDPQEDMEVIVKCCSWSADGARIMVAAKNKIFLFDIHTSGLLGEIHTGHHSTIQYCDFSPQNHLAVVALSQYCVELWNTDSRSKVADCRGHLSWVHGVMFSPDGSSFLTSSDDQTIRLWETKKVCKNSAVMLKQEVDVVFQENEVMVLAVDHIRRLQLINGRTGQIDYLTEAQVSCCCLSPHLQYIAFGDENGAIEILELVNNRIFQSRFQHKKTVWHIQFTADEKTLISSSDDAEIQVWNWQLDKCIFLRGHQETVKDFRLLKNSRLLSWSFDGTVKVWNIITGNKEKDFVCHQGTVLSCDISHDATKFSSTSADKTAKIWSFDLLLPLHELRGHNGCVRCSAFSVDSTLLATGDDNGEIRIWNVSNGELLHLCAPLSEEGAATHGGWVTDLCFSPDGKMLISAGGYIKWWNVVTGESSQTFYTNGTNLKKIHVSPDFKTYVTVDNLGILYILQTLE
Kind of assay: SAR analysis of small molecule Activators of Apaf-1 in a Fluorescent assay. It counts as functional. The note with it: read-out: EC50_Mean.

The nature of assay [14]: growth suppression of PTEN-null colon cells, dose response, cell-based, HCT116 PTEN knockout (AID 1047).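 Note: HCT116 colon tumor cells with PTEN knocked out; cells exposed to compound for 60 hours before readout; potency for loss of cell viability measured by luminescence.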 It counts as functional.
Assay [15] in a line: growth suppression of beta-catenin-knockout colon cells, dose response, cell-based, HCT116, human colon tumor (AID 1045).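 Note: HCT116 colon tumor cells with beta catenin knocked out; cells exposed to compound for 60 hours.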 The format is functional.
The target of assay [16] is Tyrosine-protein kinase JAK2 (Homo sapiens, UniProt O60674). It counts as functional.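 Note: JAK2 tested as one member of a kinase panel.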
Sequence of Tyrosine-protein kinase JAK2 (O60674 whole entry): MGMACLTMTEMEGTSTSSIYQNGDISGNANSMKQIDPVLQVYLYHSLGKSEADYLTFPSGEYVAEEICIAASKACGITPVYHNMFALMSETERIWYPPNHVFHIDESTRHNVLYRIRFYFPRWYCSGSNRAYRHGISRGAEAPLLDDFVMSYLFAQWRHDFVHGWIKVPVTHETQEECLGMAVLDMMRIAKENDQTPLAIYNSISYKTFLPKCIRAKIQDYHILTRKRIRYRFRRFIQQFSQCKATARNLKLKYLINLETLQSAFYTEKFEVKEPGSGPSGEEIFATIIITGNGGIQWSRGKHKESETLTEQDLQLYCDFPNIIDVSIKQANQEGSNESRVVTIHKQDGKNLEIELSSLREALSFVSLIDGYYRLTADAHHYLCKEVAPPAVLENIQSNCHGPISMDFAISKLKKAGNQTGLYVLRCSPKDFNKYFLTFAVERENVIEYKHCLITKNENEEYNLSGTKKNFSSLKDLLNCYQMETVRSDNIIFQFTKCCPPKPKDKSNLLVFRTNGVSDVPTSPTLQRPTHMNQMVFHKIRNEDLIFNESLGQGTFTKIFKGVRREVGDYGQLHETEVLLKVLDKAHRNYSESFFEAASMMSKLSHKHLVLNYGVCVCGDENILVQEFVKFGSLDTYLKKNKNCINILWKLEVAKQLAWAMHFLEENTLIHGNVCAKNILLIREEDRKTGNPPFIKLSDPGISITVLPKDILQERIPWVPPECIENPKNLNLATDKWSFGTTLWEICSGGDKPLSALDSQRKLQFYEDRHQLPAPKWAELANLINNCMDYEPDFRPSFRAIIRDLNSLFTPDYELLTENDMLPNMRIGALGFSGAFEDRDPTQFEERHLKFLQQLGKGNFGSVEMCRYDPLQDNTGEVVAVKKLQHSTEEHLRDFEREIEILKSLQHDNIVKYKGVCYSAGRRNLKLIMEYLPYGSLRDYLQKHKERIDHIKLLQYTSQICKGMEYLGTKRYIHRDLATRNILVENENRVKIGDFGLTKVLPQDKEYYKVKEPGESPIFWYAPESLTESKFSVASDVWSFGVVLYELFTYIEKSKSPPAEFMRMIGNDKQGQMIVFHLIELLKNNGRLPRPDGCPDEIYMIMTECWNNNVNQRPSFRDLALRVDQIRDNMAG
Assay [17] addresses Tyrosine-protein kinase JAK3 (Homo sapiens, UniProt P52333). The format is functional.

For orientation: IC50 means the concentration that gives 50% inhibition. Usually Ki stands for a measure of affinity in units of concentration, obtained from inhibition or displacement.

Calls of active or inactive are those of the source.

Sequence of 26S proteasome non-ATPase regulatory subunit 14 (O00487 whole entry): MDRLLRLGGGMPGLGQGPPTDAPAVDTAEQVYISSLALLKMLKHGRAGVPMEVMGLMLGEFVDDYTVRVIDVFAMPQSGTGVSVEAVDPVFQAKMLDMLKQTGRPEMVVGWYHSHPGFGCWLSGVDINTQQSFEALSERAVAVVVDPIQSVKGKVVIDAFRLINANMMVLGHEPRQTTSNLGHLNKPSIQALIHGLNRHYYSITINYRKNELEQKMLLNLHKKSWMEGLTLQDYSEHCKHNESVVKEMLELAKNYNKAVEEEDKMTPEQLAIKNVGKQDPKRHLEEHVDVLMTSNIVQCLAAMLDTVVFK
Sequence of Melanocortin receptor 4 (P32245 whole entry): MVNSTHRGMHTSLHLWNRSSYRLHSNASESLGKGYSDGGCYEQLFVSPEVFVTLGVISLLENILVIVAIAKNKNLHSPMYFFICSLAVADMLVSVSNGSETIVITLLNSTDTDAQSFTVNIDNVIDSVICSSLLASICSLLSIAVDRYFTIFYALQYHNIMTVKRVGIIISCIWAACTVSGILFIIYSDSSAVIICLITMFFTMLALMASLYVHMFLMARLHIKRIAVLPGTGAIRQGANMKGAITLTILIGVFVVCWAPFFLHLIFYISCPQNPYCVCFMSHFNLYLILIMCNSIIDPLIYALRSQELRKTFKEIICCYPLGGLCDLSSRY
Sequence of Tyrosine-protein kinase JAK3 (P52333 whole entry): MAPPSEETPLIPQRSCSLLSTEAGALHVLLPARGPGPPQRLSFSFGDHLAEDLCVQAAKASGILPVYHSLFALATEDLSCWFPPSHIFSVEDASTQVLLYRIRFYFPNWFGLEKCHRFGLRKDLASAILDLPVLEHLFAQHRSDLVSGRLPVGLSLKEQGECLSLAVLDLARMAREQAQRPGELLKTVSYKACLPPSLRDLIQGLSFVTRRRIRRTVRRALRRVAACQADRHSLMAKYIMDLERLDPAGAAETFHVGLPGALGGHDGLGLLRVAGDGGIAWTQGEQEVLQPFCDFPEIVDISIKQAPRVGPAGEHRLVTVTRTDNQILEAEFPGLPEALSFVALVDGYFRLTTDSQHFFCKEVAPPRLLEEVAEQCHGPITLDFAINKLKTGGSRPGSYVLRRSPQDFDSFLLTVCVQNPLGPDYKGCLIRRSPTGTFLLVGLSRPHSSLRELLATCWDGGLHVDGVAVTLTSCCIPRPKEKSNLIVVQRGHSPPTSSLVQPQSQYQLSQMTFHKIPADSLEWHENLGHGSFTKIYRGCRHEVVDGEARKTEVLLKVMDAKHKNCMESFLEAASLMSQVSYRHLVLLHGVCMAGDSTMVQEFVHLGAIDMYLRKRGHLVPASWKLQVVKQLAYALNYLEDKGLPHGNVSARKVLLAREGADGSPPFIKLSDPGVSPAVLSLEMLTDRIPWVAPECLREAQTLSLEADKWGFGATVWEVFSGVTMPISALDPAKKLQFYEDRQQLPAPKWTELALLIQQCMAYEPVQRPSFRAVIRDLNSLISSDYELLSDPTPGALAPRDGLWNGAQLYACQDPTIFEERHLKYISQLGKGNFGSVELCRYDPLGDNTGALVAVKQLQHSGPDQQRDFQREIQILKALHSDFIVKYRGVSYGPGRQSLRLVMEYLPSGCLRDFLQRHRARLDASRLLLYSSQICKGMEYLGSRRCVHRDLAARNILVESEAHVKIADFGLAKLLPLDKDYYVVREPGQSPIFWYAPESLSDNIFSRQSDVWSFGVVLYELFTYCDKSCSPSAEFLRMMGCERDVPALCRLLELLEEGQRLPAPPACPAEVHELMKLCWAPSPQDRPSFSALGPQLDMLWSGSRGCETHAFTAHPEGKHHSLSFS
Sequence of Potassium voltage-gated channel subfamily KQT member 2 (O88943 whole entry): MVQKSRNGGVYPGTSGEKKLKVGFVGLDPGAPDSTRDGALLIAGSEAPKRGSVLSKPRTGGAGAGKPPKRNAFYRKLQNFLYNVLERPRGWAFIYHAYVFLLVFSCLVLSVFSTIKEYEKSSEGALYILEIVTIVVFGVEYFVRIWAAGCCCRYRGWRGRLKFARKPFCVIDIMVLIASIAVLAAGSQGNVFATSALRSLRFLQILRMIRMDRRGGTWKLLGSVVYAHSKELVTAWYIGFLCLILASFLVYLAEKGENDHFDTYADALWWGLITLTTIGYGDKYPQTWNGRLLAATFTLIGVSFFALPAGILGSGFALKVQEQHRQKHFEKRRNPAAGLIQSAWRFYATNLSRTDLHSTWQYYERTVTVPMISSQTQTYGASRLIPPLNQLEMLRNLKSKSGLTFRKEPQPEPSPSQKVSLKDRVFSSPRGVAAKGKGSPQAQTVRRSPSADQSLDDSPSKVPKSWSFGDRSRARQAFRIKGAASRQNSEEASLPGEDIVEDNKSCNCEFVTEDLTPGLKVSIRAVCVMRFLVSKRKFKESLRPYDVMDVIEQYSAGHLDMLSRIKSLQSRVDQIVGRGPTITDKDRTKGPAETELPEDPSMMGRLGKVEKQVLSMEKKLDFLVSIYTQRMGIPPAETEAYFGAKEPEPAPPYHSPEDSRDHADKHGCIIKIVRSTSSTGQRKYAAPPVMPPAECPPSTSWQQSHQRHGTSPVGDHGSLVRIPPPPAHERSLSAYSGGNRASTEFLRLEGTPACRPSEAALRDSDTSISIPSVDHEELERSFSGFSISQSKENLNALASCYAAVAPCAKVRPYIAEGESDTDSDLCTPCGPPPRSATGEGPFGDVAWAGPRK

With `CCOC(=O)N1CCN(CCC(=O)c2ccc(OC)cc2)CC1`, the IC50 in assay [1] and in assay [2] was > 64.5 µM (inactive) each time.
On to `Cc1cc(C)c(/N=C2\CCCN2Cc2ccccc2)c(C#N)c1`, for which the IC50 was > 100 µM (not active) in [3] and 1.99 µM (active) in [4].
In the case of `O=Cc1sc(Nc2ccccc2)nc1Cl`, the IC50 in [5] was 8.23 µM (active); in assay [6], > 100 µM (inactive); in assay [7], 11.4 µM (active).
Consider `O=C(NNc1ncnc2ccccc12)c1cccc(Cl)c1`, for which the IC50 in [8] is 18.5 µM (active); in assay [5], 24.8 µM (active); in assay [6], > 100 µM (inactive); in assay [7], 71.3 µM (active).
Take `COc1ccc(OC)c2sc(NC(=O)c3ccc(Br)s3)nc12`: the IC50 in assay [9], in assay [10], in [11] and in [12] was > 99 µM (inactive) throughout.
Consider `COc1ccccc1NC(=O)CCS(=O)(=O)c1ccc2c(c1)NC(=O)C(C)S2` (configuration not stated), for which the EC50 in assay [13] was > 100 µM (inactive).
As to `CCc1ccc(OCC(=O)NC(N=C(S)Nc2ccccc2OC)C(Cl)(Cl)Cl)cc1` (configuration not stated), the EC50 in assay [14] was 9.76 µM (active); in assay [15], 9.32 µM (active). In addition, the IC50 in assay [1] and in [2] was > 64.6 µM (inactive) each time.
Turning to `O=c1[nH]c2cnc(-n3cnc4ccc(F)cc43)nc2n1C1CCOc2c(F)cccc21` (configuration not stated), the Ki in assay [16] and in assay [17] was 5.01 nM (active) in each case.
